Source: patent publication US20250171430A1, “PYRAZOLYL COMPOUNDS AS KV7 CHANNEL ACTIVATORS” (Biohaven Therapeutics Ltd., priority 2022, published 2025)

What follows are compounds tested against T1, Kv7.2/7.3 (Homo sapiens, UniProt O43525+O43526) (assay: Kv7.2/7.3 Activation Assay (Thallium Flux Assay)). Settings: hKV7.2/7.3 cell line; test compound at single concentration of 10 μM; fluorescence at 90 sec normalized to positive control (retigabine, 30 μM).
T1 construct: Kv7.2 tetracycline-induced, Kv7.3 constitutive
Format: cell-based
Excerpt: The Thallium Flux Assay is used as a surrogate indicator of potassium channel activity.
The experimental protocol was adapted from the FluxOR™ II Green Potassium Ion Channel Assay User Guide (Pub. No. MAN0016084, Invitrogen). Conditions were optimized for the Kv7.2/7.3 cell line.
Cell Line: The hKV7.2/7.3 cell line was obtained from Chantest (cat. #CT6147).
Cell Culture: Kv7.2/7.3 cells were maintained in a media containing DMEM/F12; 50/50 (Fisher 11-330), 10% Fetal Bovine Serum (FBS) (Fisher 26-140), 100 units/mL Penicillin-Streptomycin (Fisher 15-140), 0.005 mg/ml Blasticidin (InvivoGen ant-bl-1), 0.5 mg/mL Geneticin (InvivoGen ant-gn-5), and 0.1 mg/mL Zeocin (Fisher R25001). One day prior to experimentation, cells were plated in 96 well clear bottom plates (Corning cat. #353219) in a media without Blasticidin, Geneticin, or Zeocin. In this cell line Kv7.3 channel expression is controlled by a constitutive promoter. Kv7.2 channel expression was induced by adding tetracycline (Sigma T7660) at a final concentration of 10 ng/mL overnight in a cell culture incubator at 37° C. and 5% CO2. On the day of assay, the cell culture medium in the 96-well plates was replaced by assay buffer containing the thallium-sensitive fluorescent sensor, FluxOR II Green prepared according to manufacturer's instructions. The 96-well plates were then incubated for 1 h at 37° C. Following the incubation, the FluxOR II Green-containing solution was replaced with extracellular solution.
Test Compound Plates: The test compound is diluted in a mixture of 0.1% DMSO/extracellular solution at a single concentration of 10 μM. Dilutions were made on a Biomek NXP (BECKMAN COULTER). Extracellular solution contained (in mM: 145 NaCl, 4 KCl, 2 CaCl2), 1 MgCl2, 10 HEPES, and 10 Glucose, pH 7.4).
Measurement and data analysis: Thallium-flux-mediated changes in intracellular fluorescence were made using a plate reader (Enspire, Perkin Elmer) set with an excitation wavelength of 475 nm and an emission wavelength of 530 nm. After a 15 sec baseline measurement, the stimulus buffer containing thallium and potassium was added to the 96-well plate containing FluxOR II Green-loaded cells and test compounds. Fluorescence values at 90 sec were normalized to the positive control (retigabine, 30 μM) and test compound activities were assigned categories according to the formula: “No Activity <0.15, “+” Moderate Activity 0.15-0.7, and “++” High Activity >0.7.
In the case of `Cn1nc(NC(=O)CC2CC(F)(F)C2)c(C2CCC2)c1-c1cc(F)c(F)c(F)c1` [Compound 264, N-(4-cyclobutyl-1-methyl-5-(3,4,5-trifluorophenyl)-1H-pyrazol-3-yl)-2-(3,3-difluorocyclobutyl)acetamide], the “Kv7.2/7.3 Activity” value is reported as “++ (“++” High Activity ≥ 0.7)”. In the case of `Cn1nc(NC(=O)C2CC(F)(F)C2)c(C2CCC2)c1-c1cc(F)cc(F)c1` [Compound 255, N-(4-cyclobutyl-5-(3,5-difluorophenyl)-1-methyl-1H-pyrazol-3-yl)-3,3-difluorocyclobutane-1-carboxamide], the “Kv7.2/7.3 Activity” value is reported as “++ (“++” High Activity ≥ 0.7)”. In the case of `Cn1nc(NC(=O)C[C@@H]2CC(F)(F)C2(F)F)c(C2CCC2)c1C(=O)c1ccccc1` [Compound 44, (R)-N-(5-benzoyl-4-cyclobutyl-1-methyl-1H-pyrazol-3-yl)-2-(2,2,3,3-tetrafluorocyclobutyl)acetamide], the “Kv7.2/7.3 Activity” value is reported as “++ (“++” High Activity ≥ 0.7)”. `Cn1nc(NC(=O)C2CC(F)(F)C2)c(C2CCC2)c1-c1ccc(C(F)(F)F)cc1` [Compound 209, N-(4-cyclobutyl-1-methyl-5-(4-(trifluoromethyl)phenyl)-1H-pyrazol-3-yl)-3,3-difluorocyclobutane-1-carboxamide] was tested, and the “Kv7.2/7.3 Activity” value was “+ (“+” Moderate Activity 0.15-0.7)”. `Cn1nc(NC(=O)CC2(C(F)(F)F)CC2)c(C2CC(F)(F)C2)c1-c1ccc(OC(F)(F)F)cc1` [Compound 42, N-(4-(3,3-difluorocyclobutyl)-1-methyl-5-(4-(trifluoromethoxy)phenyl)-1H-pyrazol-3-yl)-2-(1-(trifluoromethyl)cyclopropyl)acetamide] was tested, and the “Kv7.2/7.3 Activity” value was “+ (“+” Moderate Activity 0.15-0.7)”. In the case of `COc1ccc(-c2c(C3CCC3)c(NC(=O)C[C@H]3CC(F)(F)C3(F)F)nn2C)cc1` [Compound 57, (S)-N-(4-cyclobutyl-5-(4-methoxyphenyl)-1-methyl-1H-pyrazol-3-yl)-2-(2,2,3,3-tetrafluorocyclobutyl)acetamide], the “Kv7.2/7.3 Activity” value is reported as “++ (“++” High Activity ≥ 0.7)”. For `Cn1nc(NC(=O)NCC(F)(F)F)c(C2CCC2)c1-c1ccc(F)cc1` [Compound 240, 1-(4-cyclobutyl-5-(4-fluorophenyl)-1-methyl-1H-pyrazol-3-yl)-3-(2,2,2-trifluoroethyl)urea], the “Kv7.2/7.3 Activity” value was “+ (“+” Moderate Activity 0.15-0.7)”. With `Cc1cccc(-c2c(NC(=O)C3CC(F)(F)C3)nn(C)c2C2CC(F)(F)C2)c1` [Compound 271, N-(5-(3,3-difluorocyclobutyl)-1-methyl-4-(m-tolyl)-1H-pyrazol-3-yl)-3,3-difluorocyclobutane-1-carboxamide] the “Kv7.2/7.3 Activity” value was “+ (“+” Moderate Activity 0.15-0.7)”. With `CCOC(=O)Nc1nn(CC)c(C)c1C1CC1` [Compound 6, ethyl (4-cyclopropyl-1-ethyl-5-methyl-1H-pyrazol-3-yl)carbamate] the “Kv7.2/7.3 Activity” value was “− (“−” No Activity < 0.15)”. In the case of `Cn1nc(NC(=O)C2CC(F)(F)C2)c(C2CCC2)c1C1CC(C)(C)C1` [Compound 188, N-(4-cyclobutyl-5-(3,3-dimethylcyclobutyl)-1-methyl-1H-pyrazol-3-yl)-3,3-difluorocyclobutane-1-carboxamide], the “Kv7.2/7.3 Activity” value is reported as “++ (“++” High Activity ≥ 0.7)”. For `Cn1nc(NC(=O)C2(C)CC(F)(F)C2)c(C2CCC2)c1-c1ccc(C(F)(F)F)cc1` [Compound 208, N-(4-cyclobutyl-1-methyl-5-(4-(trifluoromethyl)phenyl)-1H-pyrazol-3-yl)-3,3-difluoro-1-methylcyclobutane-1-carboxamide], the “Kv7.2/7.3 Activity” value was “− (“−” No Activity < 0.15)”. For `Cn1nc(NC(=O)NC2CC(F)(F)C2)c(C2CCC2)c1-c1ccc(C(F)(F)F)cc1` [Compound 277, 1-(4-cyclobutyl-1-methyl-5-(4-(trifluoromethyl)phenyl)-1H-pyrazol-3-yl)-3-(3,3-difluorocyclobutyl)urea], the “Kv7.2/7.3 Activity” value was “+ (“+” Moderate Activity 0.15-0.7)”. In the case of `Cn1nc(NC(=O)CC(C(F)(F)F)C(F)(F)F)c(C2CCC2)c1-c1ccc(F)cc1` [Compound 109, N-(4-cyclobutyl-5-(4-fluorophenyl)-1-methyl-1H-pyrazol-3-yl)-4,4,4-trifluoro-3-(trifluoromethyl)butanamide], the “Kv7.2/7.3 Activity” value is reported as “++ (“++” High Activity ≥ 0.7)”. For `Cn1nc(NC(=O)[C@H]2CC2(C)C)c(-c2ccc(F)cc2)c1C1CC(F)(F)C1` [Compound 207, (S)-N-(5-(3,3-difluorocyclobutyl)-4-(4-fluorophenyl)-1-methyl-1H-pyrazol-3-yl)-2,2-dimethylcyclopropane-1-carboxamide], the “Kv7.2/7.3 Activity” value was “++ (“++” High Activity ≥ 0.7)”. In the case of `Cn1nc(NC(=O)C2CC(F)(F)C2)c(C2CCC2)c1-c1ccc(OC(F)(F)F)cc1` [Compound 189, N-(4-cyclobutyl-1-methyl-5-(4-(trifluoromethoxy)phenyl)-1H-pyrazol-3-yl)-3,3-difluorocyclobutane-1-carboxamide], the “Kv7.2/7.3 Activity” value is reported as “+ (“+” Moderate Activity 0.15-0.7)”. `Cn1nc(NC(=O)Cc2ccc(F)c(F)c2)c(C2CCC2)c1-c1ccc(F)cc1` [Compound 91, N-(4-cyclobutyl-5-(4-fluorophenyl)-1-methyl-1H-pyrazol-3-yl)-2-(3,4-difluorophenyl)acetamide] was tested, and the “Kv7.2/7.3 Activity” value was “+ (“+” Moderate Activity 0.15-0.7)”. `Cn1nc(NC(=O)[C@H]2C(C)(C)C2(F)F)c(C2CCC2)c1-c1ccc(OC(F)(F)F)cc1` [Compound 52, (R)-N-(4-cyclobutyl-1-methyl-5-(4-(trifluoromethoxy)phenyl)-1H-pyrazol-3-yl)-2,2-difluoro-3,3-dimethylcyclopropane-1-carboxamide] was tested, and the “Kv7.2/7.3 Activity” value was “+ (“+” Moderate Activity 0.15-0.7)”. With `Cn1nc(NC(=O)C2COC2)c(C2CCC2)c1-c1ccc(F)cc1` [Compound 227, N-(4-cyclobutyl-5-(4-fluorophenyl)-1-methyl-1H-pyrazol-3-yl)oxetane-3-carboxamide] the “Kv7.2/7.3 Activity” value was “− (“−” No Activity < 0.15)”. `Cn1nc(NC(=O)C2(C(F)(F)F)CC2)c(C2CC2)c1-c1ccc(F)cc1` [Compound 165, N-(4-cyclopropyl-5-(4-fluorophenyl)-1-methyl-1H-pyrazol-3-yl)-1-(trifluoromethyl)cyclopropane-1-carboxamide] was tested, and the “Kv7.2/7.3 Activity” value was “++ (“++” High Activity ≥ 0.7)”. `Cn1nc(NC(=O)CC2COC2)c(C2CCC2)c1-c1ccc(OC(F)(F)F)cc1` [Compound 84, N-(4-cyclobutyl-1-methyl-5-(4-(trifluoromethoxy)phenyl)-1H-pyrazol-3-yl)-2-(oxetan-3-yl)acetamide] was tested, and the “Kv7.2/7.3 Activity” value was “− (“−” No Activity < 0.15)”. With `C[C@@H](C(=O)Nc1nn(C)c(-c2cc(F)cc(F)c2)c1C1CCC1)C1CC(F)(F)C1` [Compound 267, (R)-N-(4-cyclobutyl-5-(3,5-difluorophenyl)-1-methyl-1H-pyrazol-3-yl)-2-(3,3-difluorocyclobutyl)propanamide] the “Kv7.2/7.3 Activity” value was “++ (“++” High Activity ≥ 0.7)”. In the case of `Cn1nc(NC(=O)C[C@@H]2CC(F)(F)C2(F)F)c(C2CCC2)c1-c1ccc(S(C)(=O)=O)cc1` [Compound 53, (R)-N-(4-cyclobutyl-1-methyl-5-(4-(methylsulfonyl)phenyl)-1H-pyrazol-3-yl)-2-(2,2,3,3-tetrafluorocyclobutyl)acetamide], the “Kv7.2/7.3 Activity” value is reported as “− (“−” No Activity < 0.15)”.
